Test results taken from patent US11154529B2, “Phosphaplatin liquid formulations” (Phosplatin Therapeutics Inc., priority 2016, dated 2021).

Assay: Ready-to-use formulation stability at 25° C./60% RH, 5 mg/mL (R,R)-pyrodach-2 in 10 mM Potassium Phosphate Buffer at pH 7.2, 10 mL vials
Format: physicochemical
Procedure: A scalable and commercially viable process for the manufacture of a ready-to-use formulation of (R,R)-pyrodach-2 in 10 mM buffer adjusted to a pH of 7.0-7.5 comprises the steps of: a) preparing a 10 mM aqueous solution of buffer; b) adding sufficient hydroxide base to effect neutralization of the added (R,R)-pyrodach-2 to reach a pH of about 7; c) adding (R,R)-pyrodach-2 and allowing it to dissolve; d) if necessary adding additional hydroxide to adjust the pH into a range of about 7.0-7.5; and e) filtering the solution under sterile conditions, filling the solution into glass vials, and covering it with a stopper and/or a cap. Stability data on two large batches of 5 mg/mL (R,R)-pyrodach-2 in 10 mM potassium phosphate buffer were generated. One such batch at pH=7.2 was evaluated at both 25° C./60% RH and refrigerated (2-8° C.) conditions, with data summarized in Table 4 and Table 5, respectively. […] Similar observations have been made for the ready-to-use liquid formulation at pH7.4, as illustrated in Table 6 and Table 7.
• Transfer 4564.6 mg±0.5 mg of potassium phosphate dibasic, trihydrate to a 2-L volumetric flask. • Fill flask to approximately 75% volume with water, swirl as needed to dissolve all solids. • Volumetrically transfer 32.0 mL of 1N KOH to flask. • Dilute flask to volume with water and mix well. • Record pH of final solution. This is the diluent. • Transfer 7653.1 mg±0.5 mg of (R,R)-pyrodach-2 to a compounding vessel. • Transfer 1500 mL of the diluent to the vessel and stir to dissolve solids. • Record pH of final solution. • Pass entire solution through a 0.22 μm sterile filter membrane into a sterile collection vessel. • Calculate (R,R)-pyrodach-2 solution concentration
To a […] glass beaker equipped with mechanical mixer was add 24645.5 g of sterile water for injection. With agitation 47.03 gm of dibasic potassium phosphate USP was added and the solids allowed to dissolve. To the stirred solution was added 253.8 gm of 1.00 N potassium hydroxide. Sterile water for injection USP (900.0 gm) was used as a rinse to facilitate both additions. With vigorous agitation, (R,R)-pyrodach-2 (201.87 gm) was slowly added and agitation continued until all of the solids dissolved. Sterile water for injection USP (900.0 gm) was used as a rinse to facilitate the addition. The pH was determined to be 6.7. A total of 85 mL of 1.00 N potassium hydroxide was added in 5.0 mL aliquots to adjust the pH to 7.3. The solution was sterile filtered through 0.22μ Millipore Millipack filter and aseptically filled, 10 ml top a vial in 10 mL in 10 cc Wheaton clear molded vails, stoppered with a 20 mm stopper and crimp seal capped.

With O=P1(O)OP(=O)(O)[O][Pt]2([NH][C@@H]3CCCC[C@H]3[NH]2)[O]1 (stereo partly drawn) [(R,R)-pyrodach-2, (R,R)-trans-1,2-cyclohexanediamine-(dihydrogenpyrophosphato)platinum(II)] the “(DACH) Pt-diaquo (~RRT 0.3)” value (1 Month) was 0.15%, the “(DACH) Pt-monoaquo (~RRT 0.7)” value (1 Month) was 0.75% and the “Assay (Potency)” value (1 Month) was 96.5%. The “PT-112 Dimer (~RRT 4.0)” value (1 Month) was 0.33%, the “RRT 0.58” value (1 Month) was 0.13% and the “RRT 0.67” value (1 Month) was 0.06%. For the same molecule, the “RRT 3.1-3.2” value (1 Month) was 0.22%, the “Total Related Substances” value (1 Month) was 2% and the pH (1 Month) was 7.2. For the same molecule, the “(DACH) Pt-diaquo (~RRT 0.3)” value (2 Month) was 0.09%, the “(DACH) Pt-monoaquo (~RRT 0.7)” value (2 Month) was 0.96% and the “Assay (Potency)” value (2 Month) was 99.5%. The “PT-112 Dimer (~RRT 4.0)” value (2 Month) was 0.36%, the “RRT 0.50” value (2 Month) was 0.05% and the “RRT 0.58” value (2 Month) was 0.15%. The “RRT 0.67” value (2 Month) was 0.09%, the “RRT 3.1-3.2” value (2 Month) was 0.32% and the “RRT 3.65” value (2 Month) was 0.08%. The “Total Related Substances” value (2 Month) was 2%, the pH (2 Month) was 7.2 and the “(DACH) Pt-diaquo (~RRT 0.3)” value (3 Month) was 0.19%. The “(DACH) Pt-monoaquo (~RRT 0.7)” value (3 Month) was 0.73%, the “Assay (Potency)” value (3 Month) was 98.2% and the “PT-112 Dimer (~RRT 4.0)” value (3 Month) was 0.37%. For the same molecule, the “RRT 0.50” value (3 Month) was 0.08%, the “RRT 0.58” value (3 Month) was 0.18% and the “RRT 0.67” value (3 Month) was 0.06%. For the same molecule, the “RRT 3.1-3.2” value (3 Month) was 0.37%, the “RRT 3.65” value (3 Month) was 0.11% and the “Total Related Substances” value (3 Month) was 2%. For the same molecule, the pH (3 Month) was 7.3, the “(DACH) Pt-diaquo (~RRT 0.3)” value (4 Month) was 0.13% and the “(DACH) Pt-monoaquo (~RRT 0.7)” value (4 Month) was 1.05%. For the same molecule, the “Assay (Potency)” value (4 Month) was 97.9%, the “PT-112 Dimer (~RRT 4.0)” value (4 Month) was 0.36% and the “RRT 0.50” value (4 Month) was 0.09%. For the same molecule, the “RRT 0.58” value (4 Month) was 0.20%, the “RRT 0.67” value (4 Month) was 0.07% and the “RRT 3.1-3.2” value (4 Month) was 0.38%. The “RRT 3.46” value (4 Month) was 0.05%, the “RRT 3.65” value (4 Month) was 0.13% and the “Total Related Substances” value (4 Month) was 2%. The pH (4 Month) was 7.1, the “(DACH) Pt-diaquo (~RRT 0.3)” value (6 Month) was 0.15% and the “(DACH) Pt-monoaquo (~RRT 0.7)” value (6 Month) was 1.03%. For the same molecule, the “Assay (Potency)” value (6 Month) was 97.5%, the “PT-112 Dimer (~RRT 4.0)” value (6 Month) was 0.37% and the “RRT 0.50” value (6 Month) was 0.15%. The “RRT 0.58” value (6 Month) was 0.21%, the “RRT 0.67” value (6 Month) was 0.07% and the “RRT 0.86” value (6 Month) was 0.05%. The “RRT 3.1-3.2” value (6 Month) was 0.40%, the “RRT 3.65” value (6 Month) was 0.24% and the “RRT 4.97” value (6 Month) was 0.05%. For the same molecule, the “Total Related Substances” value (6 Month) was 3%, the pH (6 Month) was 7.2 and the “Particulate Matter (Light Obscuration)” value (6 Month, first value) was 20 particles particles per container. For the same molecule, the “Particulate Matter (Light Obscuration)” value (6 Month, second value) was 3 particles particles per container, the “(DACH) Pt-diaquo (~RRT 0.3)” value (9 Month) was 0.16% and the “(DACH) Pt-monoaquo (~RRT 0.7)” value (9 Month) was 1.10%. For the same molecule, the “Assay (Potency)” value (9 Month) was 96.8%, the “PT-112 Dimer (~RRT 4.0)” value (9 Month) was 0.39% and the “RRT 0.50” value (9 Month) was 0.19%. For the same molecule, the “RRT 0.58” value (9 Month) was 0.27%, the “RRT 0.67” value (9 Month) was 0.10% and the “RRT 0.86” value (9 Month) was 0.05%. The “RRT 3.1-3.2” value (9 Month) was 0.30%, the “RRT 3.65” value (9 Month) was 0.39% and the “RRT 4.97” value (9 Month) was 0.08%. The “Total Related Substances” value (9 Month) was 3%, the pH (9 Month) was 7.2 and the “(DACH) Pt-diaquo (~RRT 0.3)” value (12 Month) was 0.18%. For the same molecule, the “(DACH) Pt-monoaquo (~RRT 0.7)” value (12 Month) was 0.91%, the “Assay (Potency)” value (12 Month) was 96.8% and the “PT-112 Dimer (~RRT 4.0)” value (12 Month) was 0.33%. For the same molecule, the “RRT 0.41” value (12 Month) was 0.05%, the “RRT 0.50” value (12 Month) was 0.26% and the “RRT 0.58” value (12 Month) was 0.26%. The “RRT 0.67” value (12 Month) was 0.13%, the “RRT 0.86” value (12 Month) was 0.05% and the “RRT 3.1-3.2” value (12 Month) was 0.44%. The “RRT 3.65” value (12 Month) was 0.52%, the “RRT 4.97” value (12 Month) was 0.20% and the “Total Related Substances” value (12 Month) was 3%. The pH (12 Month) was 7.2, the “Particulate Matter (Light Obscuration)” value (12 Month, first value) was 36 particles particles per container and the “Particulate Matter (Light Obscuration)” value (12 Month, second value) was 2 particles particles per container. For the same molecule, the “(DACH) Pt-diaquo (~RRT 0.3)” value (15 Month) was 0.14%, the “(DACH) Pt-monoaquo (~RRT 0.7)” value (15 Month) was 0.84% and the “Assay (Potency)” value (15 Month) was 98.1%. The “PT-112 Dimer (~RRT 4.0)” value (15 Month) was 0.29%, the “RRT 0.41” value (15 Month) was 0.07% and the “RRT 0.50” value (15 Month) was 0.37%. For the same molecule, the “RRT 0.58” value (15 Month) was 0.26%, the “RRT 0.67” value (15 Month) was 0.07% and the “RRT 3.1-3.2” value (15 Month) was 0.41%. The “RRT 3.65” value (15 Month) was 0.63%, the “RRT 4.97” value (15 Month) was 0.28% and the “Total Related Substances” value (15 Month) was 3%. The pH (15 Month) was 7.3, the “(DACH) Pt-diaquo (~RRT 0.3)” value (18 Month) was 0.14% and the “(DACH) Pt-monoaquo (~RRT 0.7)” value (18 Month) was 1.04%. For the same molecule, the “Assay (Potency)” value (18 Month) was 99.0%, the “PT-112 Dimer (~RRT 4.0)” value (18 Month) was 0.30% and the “RRT 0.41” value (18 Month) was 0.06%. The “RRT 0.50” value (18 Month) was 0.36%, the “RRT 0.58” value (18 Month) was 0.29% and the “RRT 0.67” value (18 Month) was 0.11%. The “RRT 0.86” value (18 Month) was 0.14%, the “RRT 3.1-3.2” value (18 Month) was 0.40% and the “RRT 3.65” value (18 Month) was 0.75%. The “RRT 4.97” value (18 Month) was 0.43%, the “Total Related Substances” value (18 Month) was 4% and the pH (18 Month) was 7.2. The “(DACH) Pt-diaquo (~RRT 0.3)” value (24 Month) was 0.15%, the “(DACH) Pt-monoaquo (~RRT 0.7)” value (24 Month) was 0.83% and the “Assay (Potency)” value (24 Month) was 97.5%. The “PT-112 Dimer (~RRT 4.0)” value (24 Month) was 0.36%, the “RRT 0.41” value (24 Month) was 0.12% and the “RRT 0.46” value (24 Month) was 0.10%. For the same molecule, the “RRT 0.50” value (24 Month) was 0.70%, the “RRT 0.58” value (24 Month) was 0.17% and the “RRT 0.67” value (24 Month) was 0.07%. The “RRT 3.1-3.2” value (24 Month) was 0.41%, the “RRT 3.46” value (24 Month) was 0.07% and the “RRT 3.65” value (24 Month) was 1.24%. The “RRT 4.97” value (24 Month) was 0.73%, the “Total Related Substances” value (24 Month) was 5% and the pH (24 Month) was 7.2. For the same molecule, the “Particulate Matter (Light Obscuration)” value (24 Month, first value) was 81 particles particles per container, the “Particulate Matter (Light Obscuration)” value (24 Month, second value) was 4 particles particles per container and the “(DACH) Pt-diaquo (~RRT 0.3)” value (Initial) was 0.16%. The “(DACH) Pt-monoaquo (~RRT 0.7)” value (Initial) was 0.98%, the “Assay (Potency)” value (Initial) was 99.8% and the “PT-112 Dimer (~RRT 4.0)” value (Initial) was 0.19%. The “RRT 0.58” value (Initial) was 0.13%, the “RRT 0.67” value (Initial) was 0.05% and the “Total Related Substances” value (Initial) was 2%. The pH (Initial) was 7.2, the “Particulate Matter (Light Obscuration)” value (Initial, first value) was 219 particles particles per container and the “Particulate Matter (Light Obscuration)” value (Initial, second value) was 11 particles particles per container.
